Patent US20250242064A1, “CXCR4-TARGETING COMPOUNDS, AND METHODS OF MAKING AND USING THE SAME” (PROVINCIAL HEALTH SERVICES AUTHORITY, priority 2022, published 2025)
Where a SMILES comes first, the peptide text is derived from it. Bridges are numbered along the chain shown (N, C = ends). [ ]: non-standard residue; d: D form. The star is where a group is joined. X3 = O=C(O)CN1CCN(CC(=O)O)CCN(CC(=O)N[C@@H](CS(=O)(=O)O)C(=O)N[C@@H](CCCCNC(=O)CCCc2ccc(Br)cc2)C(=O)*)CCN(CC(=O)O)CC1; 2Nal = N[C@@H](Cc1ccc2ccccc2c1)C(=O)O; Lys(iPr) = CC(C)NCCCC[C@H](N)C(=O)O

Experiment: in vivo
Design: species or system mice
Details: male, mouse, iv, total radioactivity
How it was run: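 Male NRG mice bearing subcutaneous Z138 mantle cell lymphoma xenografts (5×10^6 cells, grown to 200-300 mm^3) injected intravenously under isoflurane with 68Ga-labelled tracers. Harvested tissues weighed and gamma-counted; uptake expressed as % ID/g.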

[1] = NOD.Cg-Rag1tm1Mom Il2rgtm1Wjl/SzJ (NRG), Biodistribution: Adrenals
[2] = NOD.Cg-Rag1tm1Mom Il2rgtm1Wjl/SzJ (NRG), Biodistribution: Blood
[3] = NOD.Cg-Rag1tm1Mom Il2rgtm1Wjl/SzJ (NRG), Biodistribution: Bone
[4] = NOD.Cg-Rag1tm1Mom Il2rgtm1Wjl/SzJ (NRG), Biodistribution: Brain
[5] = NOD.Cg-Rag1tm1Mom Il2rgtm1Wjl/SzJ (NRG), Biodistribution: Heart
[6] = NOD.Cg-Rag1tm1Mom Il2rgtm1Wjl/SzJ (NRG), Biodistribution: Kidneys
[7] = NOD.Cg-Rag1tm1Mom Il2rgtm1Wjl/SzJ (NRG), Biodistribution: Liver
[8] = NOD.Cg-Rag1tm1Mom Il2rgtm1Wjl/SzJ (NRG), Biodistribution: Lungs
[9] = NOD.Cg-Rag1tm1Mom Il2rgtm1Wjl/SzJ (NRG), Biodistribution: Muscle
[10] = NOD.Cg-Rag1tm1Mom Il2rgtm1Wjl/SzJ (NRG), Biodistribution: Pancreas
[11] = NOD.Cg-Rag1tm1Mom Il2rgtm1Wjl/SzJ (NRG), Biodistribution: Small Intestine
[12] = NOD.Cg-Rag1tm1Mom Il2rgtm1Wjl/SzJ (NRG), Biodistribution: Spleen
[13] = NOD.Cg-Rag1tm1Mom Il2rgtm1Wjl/SzJ (NRG), Biodistribution: Stomach
[14] = NOD.Cg-Rag1tm1Mom Il2rgtm1Wjl/SzJ (NRG), Biodistribution: Testes
[15] = NOD.Cg-Rag1tm1Mom Il2rgtm1Wjl/SzJ (NRG), Biodistribution: Z138 Tumor
[16] = NOD.Cg-Rag1tm1Mom Il2rgtm1Wjl/SzJ (NRG), Ratio Tumor-to-Blood
[17] = NOD.Cg-Rag1tm1Mom Il2rgtm1Wjl/SzJ (NRG), Ratio Tumor-to-Bone
[18] = NOD.Cg-Rag1tm1Mom Il2rgtm1Wjl/SzJ (NRG), Ratio Tumor-to-Kidney
[19] = NOD.Cg-Rag1tm1Mom Il2rgtm1Wjl/SzJ (NRG), Ratio Tumor-to-Muscle
[20] = NOD.Cg-Rag1tm1Mom Il2rgtm1Wjl/SzJ (NRG), Ratio Tumor-to-Pancreas
[21] = NOD.Cg-Rag1tm1Momll2rgtm1Wjl/SzJ (NRG), Biodistribution: Blood
[22] = NOD.Cg-Rag1tm1Momll2rgtm1Wjl/SzJ (NRG), Biodistribution: Stomach
[23] = NOD.Cg-Rag1tm1Momll2rgtm1Wjl/SzJ (NRG), Biodistribution: Testes
[24] = NOD.Cg-Rag1tm1Momll2rgtm1Wjl/SzJ (NRG), Ratio Tumor-to-Bone
[25] = NOD.Cg-Rag1tm1Momll2rgtm1Wjl/SzJ (NRG), Ratio Tumor-to-Kidney
[26] = NOD.Cg-Rag1tm1Momll2rgtm1Wjl/SzJ (NRG), Ratio Tumor-to-Muscle
[27] = NOD.Cg-Rag1tm1Momll2rgtm1Wjl/SzJ (NRG), Ratio Tumor-to-Pancreas

- tissue uptake at 1 h [1]: 2.44 %ID/g
- tissue uptake at 3 h [1]: 2.29 %ID/g
- tissue uptake at 24 h [1]: 1.1 %ID/g
- tissue uptake at 72 h [1]: 0.81 %ID/g
- tissue uptake at 120 h [1]: 1.24 %ID/g
- tissue uptake at 1 h [2]: 14.1 %ID/g
- tissue uptake at 3 h [2]: 11.8 %ID/g
- tissue uptake at 1 h [3]: 1.02 %ID/g
- tissue uptake at 3 h [3]: 0.78 %ID/g
- tissue uptake at 24 h [3]: 0.29 %ID/g
- tissue uptake at 72 h [3]: 0.26 %ID/g
- tissue uptake at 120 h [3]: 0.3 %ID/g
- tissue uptake at 1 h [4]: 0.22 %ID/g
- tissue uptake at 3 h [4]: 0.2 %ID/g
- tissue uptake at 24 h [4]: 0.06 %ID/g
- tissue uptake at 72 h [4]: 0.03 %ID/g
- tissue uptake at 120 h [4]: 0.02 %ID/g
- tissue uptake at 1 h [5]: 3.05 %ID/g
- tissue uptake at 3 h [5]: 3.01 %ID/g
- tissue uptake at 24 h [5]: 0.76 %ID/g
- tissue uptake at 72 h [5]: 0.25 %ID/g
- tissue uptake at 120 h [5]: 0.18 %ID/g
- tissue uptake at 1 h [6]: 4.5 %ID/g
- tissue uptake at 3 h [6]: 3.98 %ID/g
- tissue uptake at 24 h [6]: 1.53 %ID/g
- tissue uptake at 72 h [6]: 0.4 %ID/g
- tissue uptake at 120 h [6]: 0.33 %ID/g
- tissue uptake at 1 h [7]: 2.8 %ID/g
- tissue uptake at 3 h [7]: 3.16 %ID/g
- tissue uptake at 24 h [7]: 0.84 %ID/g
- tissue uptake at 72 h [7]: 0.44 %ID/g
- tissue uptake at 120 h [7]: 0.19 %ID/g
- tissue uptake at 1 h [8]: 8.78 %ID/g
- tissue uptake at 3 h [8]: 6.6 %ID/g
- tissue uptake at 24 h [8]: 1.9 %ID/g
- tissue uptake at 72 h [8]: 0.68 %ID/g
- tissue uptake at 120 h [8]: 0.72 %ID/g
- tissue uptake at 1 h [9]: 1.13 %ID/g
- tissue uptake at 3 h [9]: 0.93 %ID/g
- tissue uptake at 24 h [9]: 0.27 %ID/g
- tissue uptake at 72 h [9]: 0.15 %ID/g
- tissue uptake at 120 h [9]: 0.08 %ID/g
- tissue uptake at 1 h [10]: 1.59 %ID/g
- tissue uptake at 3 h [10]: 1.25 %ID/g
- tissue uptake at 24 h [10]: 1.38 %ID/g
- tissue uptake at 72 h [10]: 0.12 %ID/g
- tissue uptake at 120 h [10]: 0.23 %ID/g
- tissue uptake at 1 h [11]: 1.16 %ID/g
- tissue uptake at 3 h [11]: 1.02 %ID/g
- tissue uptake at 24 h [11]: 0.53 %ID/g
- tissue uptake at 72 h [11]: 0.11 %ID/g
- tissue uptake at 120 h [11]: 0.08 %ID/g
- tissue uptake at 1 h [12]: 1.92 %ID/g
- tissue uptake at 3 h [12]: 1.86 %ID/g
- tissue uptake at 24 h [12]: 1.12 %ID/g
- tissue uptake at 72 h [12]: 0.95 %ID/g
- tissue uptake at 120 h [12]: 0.77 %ID/g
- tissue uptake at 1 h [13]: 0.52 %ID/g
- tissue uptake at 3 h [13]: 0.71 %ID/g
- tissue uptake at 1 h [14]: 1.78 %ID/g
- tissue uptake at 3 h [14]: 2.81 %ID/g
- tissue uptake at 1 h [15]: 5.94 %ID/g
- tissue uptake at 3 h [15]: 15.4 %ID/g
- tissue uptake at 24 h [15]: 27.4 %ID/g
- tissue uptake at 72 h [15]: 23.6 %ID/g
- tissue uptake at 120 h [15]: 23.6 %ID/g
- tissue to tissue ratio at 1 h [16]: 0.42
- tissue to tissue ratio at 3 h [16]: 1.3
- tissue to tissue ratio at 24 h [16]: 9.65
- tissue to tissue ratio at 72 h [16]: 53.9
- tissue to tissue ratio at 120 h [16]: 71.5
- tissue to tissue ratio at 1 h [17]: 3.63
- tissue to tissue ratio at 3 h [17]: 10.5
- tissue to tissue ratio at 1 h [18]: 1.32
- tissue to tissue ratio at 3 h [18]: 3.93
- tissue to tissue ratio at 1 h [19]: 5.29
- tissue to tissue ratio at 3 h [19]: 16.7
- tissue to tissue ratio at 72 h [19]: 234
- tissue to tissue ratio at 1 h [20]: 3.77
- tissue to tissue ratio at 3 h [20]: 12.6
- tissue uptake at 24 h [21]: 2.84 %ID/g
- tissue uptake at 72 h [21]: 0.45 %ID/g
- tissue uptake at 120 h [21]: 0.36 %ID/g
- tissue uptake at 24 h [22]: 0.41 %ID/g
- tissue uptake at 72 h [22]: 0.13 %ID/g
- tissue uptake at 120 h [22]: 0.07 %ID/g
- tissue uptake at 24 h [23]: 1.01 %ID/g
- tissue uptake at 72 h [23]: 0.65 %ID/g
- tissue uptake at 120 h [23]: 0.56 %ID/g
- tissue to tissue ratio at 24 h [24]: 45.3
- tissue to tissue ratio at 72 h [24]: 44.3
- tissue to tissue ratio at 120 h [24]: 27
- tissue to tissue ratio at 24 h [25]: 18
- tissue to tissue ratio at 72 h [25]: 60.3
- tissue to tissue ratio at 120 h [25]: 75.5
- tissue to tissue ratio at 24 h [26]: 102
- tissue to tissue ratio at 120 h [26]: 357
- tissue to tissue ratio at 24 h [27]: 70.9
- tissue to tissue ratio at 72 h [27]: 206
- tissue to tissue ratio at 120 h [27]: 257
Compound: CC(C)NCCCC[C@H](NC(=O)[C@H]1CCC(=O)N[C@@H](CCCCNC(=O)[C@H](CCCCNC(=O)CCCc2ccc(Br)cc2)NC(=O)[C@H](CS(=O)(=O)O)NC(=O)CN2CCN(CC(=O)O)CCN(CC(=O)O)CCN(CC(=O)O)CC2)C(=O)N[C@@H](Cc2ccc(O)cc2)C(=O)N[C@@H](CCCCNC(C)C)C(=O)N[C@H](CCCNC(=N)N)C(=O)N[C@@H](Cc2ccc3ccccc3c2)C(=O)N[C@H](C)C(=O)N1)C(N)=O [[^177Lu]Lu-BL34L20, metal not drawn] (K(X3)Y[Lys(iPr)][dR][2Nal][dA][dE][Lys(iPr)]-NH2; lactam N-7)
